Test results from patent US20250195519A1, “COMBINATION OF DASATINIB AND LOVASTATIN FOR USE IN METHODS FOR THE TREATMENT OF CARDIAC FIBROSIS” (INSERM (INSTITUT NATIONAL DE LA SANTÉ ET DE LA RECHERCHE …, priority 2022, published 2025).
Like-named read-outs stand apart in the source and are kept apart here.

System: human cardiac fibroblasts
Details: 72 h, 10 ng/ml TGFβ; for effect on TGFβ-induced collagen production: Sirius Red
Experimental: Primary cardiac fibroblasts were isolated and cultured according to the method described previously [11]. […] The suspension was centrifuged at 300 g for 5 min and the cell pellet was resuspended in DMEM F12 medium (Sigma D6434) supplemented with 10% FBS, penicillin (20 U/mL)-streptomycin (20 μg/mL) and 2 mM glutamine and cultured in a 37° C., 5% CO2 incubator. Primary cardiac fibroblasts were used up to passage 3. Cardiac fibroblasts were exposed to 10 ng/ml TGFβ (T) for 72 h in the presence or absence of 5 μM lovastatin (L) or 5 nM dasatinib (D) or combination of 5 μM lovastatin and 5 nM dasatinib (DL).
Following treatment, cardiac fibroblasts were fixed in methanol, and incubated in the 0.1% Picrosirius red staining solution (Sigma-Aldrich, France) as per manufacturer's instructions.
Picrosirius red was solubilised in 0.1 N sodium hydroxide and the optical density was read at 540 nm (SERLABO Technologies, France).
Data are expressed as mean±SEM. Comparison between two groups was performed by Student's two-tailed t-test while comparison of multiple groups was performed by one-way ANOVA followed by a Bonferroni's post hoc test using GraphPad Prism version 5.00 (GraphPad Software, Inc).

Row | SMILES | collagen values relative to control (5 nM dasatinib) | effect on TGFβ-induced collagen production (5 nM dasatinib) | collagen values relative to control (5 μM lovastatin) | effect on TGFβ-induced collagen production (5 μM lovastatin)
1 | Cc1nc(Nc2ncc(C(=O)Nc3c(C)cccc3Cl)s2)cc(N2CCN(CCO)CC2)n1 [dasatinib, N-(2-chloro-6-methylphenyl)-2-[6-[4-(2-hydroxyethyl)-1-piperazinyl]-2-methyl-4-pyrimidinyl]amino]-5-thiazole carboxamide monohydrate] | did not reach control values | modest but significant effects |  | 
2 | CCC(C)C(=O)OC1CC(C)C=C2C=CC(C)C(CCC3CC(O)CC(=O)O3)C21 (stereo not shown) [lovastatin, [8-[2-(4-hydroxy-6-oxo-oxan-2-yl)ethyl]-3,7-dimethyl-1,2,3,7,8,8a-hexahydronaphthalen-1-yl] 2-methylbutanoate] |  |  | did not reach control values | modest but significant effects
